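Test compounds were applied to cells in 96-well plates for 48 hours at 5 doses. GI50 is the concentration that inhibits growth by half. TGI is the concentration that stops growth completely.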
These molecules were tested on RXF-631 renal (assay: growth of human tumour cells (NCI), 48 h).

SMILES	TGI
N#CC1(C2SCCS2=O)C2=C(C(=O)c3ccccc3C2=O)N2CCCC21 (stereo not drawn)	5.3 µM
O=S(O)CCCCSSCc1ccccc1CSSCCCCS(=O)O	> 100 µM
O=C(Nc1ccc([N+](=O)[O-])cc1)C1C(=O)C(=O)N(c2ccc([N+](=O)[O-])cc2)C1=O (stereo not drawn)	> 100 µM
CCOC(=O)C1N(S(=O)(=O)c2ccc(C)cc2)CCC12C(c1ccc(OC)cc1)NC1CCCCC12 (stereo not drawn)	> 100 µM
COc1ccccc1NC(=O)C1=C(C)NC(C)=C(C(=O)Nc2ccccc2OC)C1c1ccc([N+](=O)[O-])cc1	> 100 µM
COC(=O)/C=C/C1C(C(=O)OC)C2(C(=O)OC)CCC1(C(=O)OC)N2 (stereo not drawn)	> 100 µM
COc1ccc(C(=O)C(CO)Oc2ccccc2OC)cc1OC (stereo not drawn)	> 100 µM
N#CC(/C(=N/NC(=O)C(=O)NN)C(=O)NC12CC3CC(CC(C3)C1)C2)c1ccccc1 (stereo not drawn)	> 100 µM
CCCCCCCCCc1cc(=O)c2c(O)cccc2o1	> 100 µM
O=C(CN1CCCCC1)N1CCc2c([nH]c3ccccc23)C1c1cccnc1 (stereo not drawn)	> 100 µM
O=C(/C=C/c1ccccc1)/C=C/c1ccccc1	> 100 µM
N#C/C(=C\c1ccc(O)c(O)c1)C(N)=O	> 100 µM
N#CC(C(=O)/C(=N/Nc1nc(=S)[nH]n1N)C(C#N)c1ccccc1)c1ccccc1 (stereo not drawn)	> 100 µM

What follows are molecules tested on DMS 114 small cell lung (assay: growth of human tumour cells (NCI), 48 h).

SMILES	TGI
N#CC1(C2SCCS2=O)C2=C(C(=O)c3ccccc3C2=O)N2CCCC21 (stereo not drawn)	6 µM
O=S(O)CCCCSSCc1ccccc1CSSCCCCS(=O)O	35.2 µM
O=C(Nc1ccc([N+](=O)[O-])cc1)C1C(=O)C(=O)N(c2ccc([N+](=O)[O-])cc2)C1=O (stereo not drawn)	35.8 µM
O=C(CCC/C(CC(=O)c1ccc(Br)cc1)=N\O)Nc1ccccc1	> 100 µM
O=C(/C=C/c1c(O)ccc2ccccc12)c1ccc2ccccc2c1	> 100 µM
CCOC(=O)C1N(S(=O)(=O)c2ccc(C)cc2)CCC12C(c1ccc(OC)cc1)NC1CCCCC12 (stereo not drawn)	> 100 µM
COc1ccccc1NC(=O)C1=C(C)NC(C)=C(C(=O)Nc2ccccc2OC)C1c1ccc([N+](=O)[O-])cc1	> 100 µM
CC(C)(C)N1CC2(CCCCC2)C1=O	> 100 µM
COc1ccc(C(=O)C(CO)Oc2ccccc2OC)cc1OC (stereo not drawn)	> 100 µM
N#CC(/C(=N/NC(=O)C(=O)NN)C(=O)NC12CC3CC(CC(C3)C1)C2)c1ccccc1 (stereo not drawn)	> 100 µM
CN=NN(C)C(=O)NC	> 100 µM
CCCCCCCCCc1cc(=O)c2c(O)cccc2o1	> 100 µM
CCOC(=O)CCc1c(C)c2c(OC(C)=O)cc(OC(C)=O)cc2oc1=O	70.8 µM
O=C(CN1CCCCC1)N1CCc2c([nH]c3ccccc23)C1c1cccnc1 (stereo not drawn)	> 100 µM
COC(=O)C12C3C4C5(C(=O)OC)C(C1C35C(=O)N(C(C)C)C(C)C)C42C(=O)N(C(C)C)C(C)C (stereo not drawn)	> 50 µM
Cc1cc(C)n(CCNCCn2nc(C)cc2C)n1	> 100 µM
O=C1CSC(Cc2nc3ccccc3[nH]2)=N1	> 59.2 µM
O=C(/C=C/c1ccccc1)/C=C/c1ccccc1	52.9 µM
N#C/C(=C\c1ccc(O)c(O)c1)C(N)=O	> 100 µM
N#CC(C(=O)/C(=N/Nc1nc(=S)[nH]n1N)C(C#N)c1ccccc1)c1ccccc1 (stereo not drawn)	> 100 µM
N#CC(C#N)=c1[nH]c2cccc3c2-c2c(cccc2c3=C(C#N)C#N)[nH]1	> 100 µM

The molecules below were run on XF 498 CNS (assay: growth of human tumour cells (NCI), 48 h).

SMILES	TGI
N#CC1(C2SCCS2=O)C2=C(C(=O)c3ccccc3C2=O)N2CCCC21 (stereo not drawn)	8.15 µM
O=S(O)CCCCSSCc1ccccc1CSSCCCCS(=O)O	25.5 µM
CCOC(=O)c1[nH]c(COC(C)=O)c(CCCOC(C)=O)c1CCCOC(C)=O	> 100 µM
O=C(CCC/C(CC(=O)c1ccc(Br)cc1)=N\O)Nc1ccccc1	> 100 µM
COc1ccccc1NC(=O)C1=C(C)NC(C)=C(C(=O)Nc2ccccc2OC)C1c1ccc([N+](=O)[O-])cc1	33.7 µM
O=C(CSc1nnc(-c2ccccc2NC(=O)C(F)(F)F)c(=O)[nH]1)NC(=O)Nc1ccccc1	> 100 µM
COC(=O)/C=C/C1C(C(=O)OC)C2(C(=O)OC)CCC1(C(=O)OC)N2 (stereo not drawn)	> 100 µM
COc1ccc(C(=O)C(CO)Oc2ccccc2OC)cc1OC (stereo not drawn)	> 100 µM
CC(C)(C)C(=O)/C=C/c1ccc(Oc2ccccc2)cc1	28.8 µM
CCCCCCCCCc1cc(=O)c2c(O)cccc2o1	> 100 µM
O=C(CN1CCCCC1)N1CCc2c([nH]c3ccccc23)C1c1cccnc1 (stereo not drawn)	> 100 µM
Cc1cc(C)n(CCNCCn2nc(C)cc2C)n1	> 1 µM
O=C1CSC(Cc2nc3ccccc3[nH]2)=N1	39.9 µM
N#CC(C(=O)/C(=N/Nc1nc(=S)[nH]n1N)C(C#N)c1ccccc1)c1ccccc1 (stereo not drawn)	> 100 µM
N#CC(C#N)=c1[nH]c2cccc3c2-c2c(cccc2c3=C(C#N)C#N)[nH]1	> 100 µM

The molecules below were run on MDA-N (assay: growth of human tumour cells (NCI), 48 h).

SMILES	TGI	GI50
N#CC1(C2SCCS2=O)C2=C(C(=O)c3ccccc3C2=O)N2CCCC21 (stereo not drawn)	1.55 µM	
O=C(O)Cc1c(O)ccc2ccccc12	> 100 µM	
O=C(O)c1c(-c2nccc3ccccc23)[nH]c(-c2ccccc2)c1S(=O)(=O)O	> 100 µM	
O=C(O)c1cc(O)c2c(c1)C(C1c3cc(C(=O)O)cc(O)c3C(=O)c3c(OC4OC(CO)C(O)C(O)C4O)cccc31)c1cccc(OC3OC(CO)C(O)C(O)C3O)c1C2=O (stereo not drawn)	> 100 µM	> 100 µM
NC(N)=N/N=C/c1cc(Cl)cc(Cl)c1O	> 100 µM	
N#CC1Nc2ccccc2[C@@H](O)C1O (stereo partly drawn)	> 100 µM	
CC(C)c1ccccc1S(=O)c1ccccc1C(C)(C)O (stereo not drawn)	> 100 µM	
COc1ccccc1/C=C/c1cnccn1	> 10 µM	
O=C(O)c1cccc(OCCO)c1	> 100 µM	
CCCS(=O)(=O)Nc1ccc(Nc2c3ccccc3nc3ccccc23)c(OC)c1	20.2 µM	
COc1cc2c(cc1OC)C13CCN4CC5=CCOC6CC(=O)N2C1C6C5CC43O (stereo not drawn)	> 100 µM	
O=C(O)c1ccccc1-c1ccccc1C(=O)Nc1ccc2c(c1)Cc1cc(F)ccc1-2	75.5 µM	

What follows are molecules tested on DMS 273 small cell lung (assay: growth of human tumour cells (NCI), 48 h).

SMILES	TGI
N#CC1(C2SCCS2=O)C2=C(C(=O)c3ccccc3C2=O)N2CCCC21 (stereo not drawn)	12.2 µM
O=S(O)CCCCSSCc1ccccc1CSSCCCCS(=O)O	> 100 µM
CCOC(=O)c1[nH]c(COC(C)=O)c(CCCOC(C)=O)c1CCCOC(C)=O	> 100 µM
O=C(Nc1ccc([N+](=O)[O-])cc1)C1C(=O)C(=O)N(c2ccc([N+](=O)[O-])cc2)C1=O (stereo not drawn)	> 100 µM
O=C(/C=C/c1c(O)ccc2ccccc12)c1ccc2ccccc2c1	> 100 µM
CCOC(=O)C1N(S(=O)(=O)c2ccc(C)cc2)CCC12C(c1ccc(OC)cc1)NC1CCCCC12 (stereo not drawn)	> 100 µM
COc1ccccc1NC(=O)C1=C(C)NC(C)=C(C(=O)Nc2ccccc2OC)C1c1ccc([N+](=O)[O-])cc1	> 100 µM
O=C(CSc1nnc(-c2ccccc2NC(=O)C(F)(F)F)c(=O)[nH]1)NC(=O)Nc1ccccc1	> 100 µM
COC(=O)/C=C/C1C(C(=O)OC)C2(C(=O)OC)CCC1(C(=O)OC)N2 (stereo not drawn)	> 100 µM
CC(C)(C)N1CC2(CCCCC2)C1=O	> 100 µM
COc1ccc(C(=O)C(CO)Oc2ccccc2OC)cc1OC (stereo not drawn)	> 100 µM
N#CC(/C(=N/NC(=O)C(=O)NN)C(=O)NC12CC3CC(CC(C3)C1)C2)c1ccccc1 (stereo not drawn)	> 100 µM
CCCCCCCCCc1cc(=O)c2c(O)cccc2o1	> 100 µM
CCOC(=O)CCc1c(C)c2c(OC(C)=O)cc(OC(C)=O)cc2oc1=O	> 100 µM
O=C(CN1CCCCC1)N1CCc2c([nH]c3ccccc23)C1c1cccnc1 (stereo not drawn)	> 100 µM
COC(=O)C12C3C4C5(C(=O)OC)C(C1C35C(=O)N(C(C)C)C(C)C)C42C(=O)N(C(C)C)C(C)C (stereo not drawn)	> 50 µM
Cc1cc(C)n(CCNCCn2nc(C)cc2C)n1	> 100 µM
O=C1CSC(Cc2nc3ccccc3[nH]2)=N1	35.4 µM
O=C(/C=C/c1ccccc1)/C=C/c1ccccc1	> 100 µM
N#C/C(=C\c1ccc(O)c(O)c1)C(N)=O	> 100 µM
N#CC(C(=O)/C(=N/Nc1nc(=S)[nH]n1N)C(C#N)c1ccccc1)c1ccccc1 (stereo not drawn)	> 100 µM
N#CC(C#N)=c1[nH]c2cccc3c2-c2c(cccc2c3=C(C#N)C#N)[nH]1	> 100 µM

These molecules were tested on HOP-18 NSCLC (assay: growth of human tumour cells (NCI), 48 h).

SMILES	TGI
N#CC1(C2SCCS2=O)C2=C(C(=O)c3ccccc3C2=O)N2CCCC21 (stereo not drawn)	8.16 µM
O=S(O)CCCCSSCc1ccccc1CSSCCCCS(=O)O	> 100 µM
O=C(Nc1ccc([N+](=O)[O-])cc1)C1C(=O)C(=O)N(c2ccc([N+](=O)[O-])cc2)C1=O (stereo not drawn)	> 100 µM
O=C(CCC/C(CC(=O)c1ccc(Br)cc1)=N\O)Nc1ccccc1	> 100 µM
COc1ccccc1NC(=O)C1=C(C)NC(C)=C(C(=O)Nc2ccccc2OC)C1c1ccc([N+](=O)[O-])cc1	> 100 µM
COC(=O)/C=C/C1C(C(=O)OC)C2(C(=O)OC)CCC1(C(=O)OC)N2 (stereo not drawn)	> 100 µM
CC(C)(C)N1CC2(CCCCC2)C1=O	> 100 µM
N#CC(/C(=N/NC(=O)C(=O)NN)C(=O)NC12CC3CC(CC(C3)C1)C2)c1ccccc1 (stereo not drawn)	> 100 µM
CC(C)(C)C(=O)/C=C/c1ccc(Oc2ccccc2)cc1	34.9 µM
CN=NN(C)C(=O)NC	> 100 µM
CCCCCCCCCc1cc(=O)c2c(O)cccc2o1	> 100 µM
CCOC(=O)CCc1c(C)c2c(OC(C)=O)cc(OC(C)=O)cc2oc1=O	> 100 µM
O=C(CN1CCCCC1)N1CCc2c([nH]c3ccccc23)C1c1cccnc1 (stereo not drawn)	> 100 µM
COC(=O)C12C3C4C5(C(=O)OC)C(C1C35C(=O)N(C(C)C)C(C)C)C42C(=O)N(C(C)C)C(C)C (stereo not drawn)	> 50 µM
O=C1CSC(Cc2nc3ccccc3[nH]2)=N1	65.6 µM
O=C(/C=C/c1ccccc1)/C=C/c1ccccc1	92.8 µM
N#CC(C(=O)/C(=N/Nc1nc(=S)[nH]n1N)C(C#N)c1ccccc1)c1ccccc1 (stereo not drawn)	> 100 µM
N#CC(C#N)=c1[nH]c2cccc3c2-c2c(cccc2c3=C(C#N)C#N)[nH]1	> 100 µM

The molecules below were run on M19-MEL melanoma (assay: growth of human tumour cells (NCI), 48 h).

SMILES	TGI
N#CC1(C2SCCS2=O)C2=C(C(=O)c3ccccc3C2=O)N2CCCC21 (stereo not drawn)	0.788 µM
O=S(O)CCCCSSCc1ccccc1CSSCCCCS(=O)O	21.2 µM
O=C(CCC/C(CC(=O)c1ccc(Br)cc1)=N\O)Nc1ccccc1	> 100 µM
O=C(/C=C/c1c(O)ccc2ccccc12)c1ccc2ccccc2c1	35.9 µM
CCOC(=O)C1N(S(=O)(=O)c2ccc(C)cc2)CCC12C(c1ccc(OC)cc1)NC1CCCCC12 (stereo not drawn)	> 100 µM
O=C(CSc1nnc(-c2ccccc2NC(=O)C(F)(F)F)c(=O)[nH]1)NC(=O)Nc1ccccc1	> 100 µM
COC(=O)/C=C/C1C(C(=O)OC)C2(C(=O)OC)CCC1(C(=O)OC)N2 (stereo not drawn)	> 100 µM
CC(C)(C)N1CC2(CCCCC2)C1=O	> 100 µM
COc1ccc(C(=O)C(CO)Oc2ccccc2OC)cc1OC (stereo not drawn)	> 100 µM
N#CC(/C(=N/NC(=O)C(=O)NN)C(=O)NC12CC3CC(CC(C3)C1)C2)c1ccccc1 (stereo not drawn)	> 100 µM
CC(C)(C)C(=O)/C=C/c1ccc(Oc2ccccc2)cc1	> 100 µM
CN=NN(C)C(=O)NC	> 100 µM
CCCCCCCCCc1cc(=O)c2c(O)cccc2o1	> 10 µM
CCOC(=O)CCc1c(C)c2c(OC(C)=O)cc(OC(C)=O)cc2oc1=O	> 100 µM
O=C(CN1CCCCC1)N1CCc2c([nH]c3ccccc23)C1c1cccnc1 (stereo not drawn)	> 100 µM
COC(=O)C12C3C4C5(C(=O)OC)C(C1C35C(=O)N(C(C)C)C(C)C)C42C(=O)N(C(C)C)C(C)C (stereo not drawn)	> 50 µM
Cc1cc(C)n(CCNCCn2nc(C)cc2C)n1	> 100 µM
O=C1CSC(Cc2nc3ccccc3[nH]2)=N1	> 59 µM
O=C(/C=C/c1ccccc1)/C=C/c1ccccc1	50.2 µM
N#C/C(=C\c1ccc(O)c(O)c1)C(N)=O	> 100 µM
N#CC(C(=O)/C(=N/Nc1nc(=S)[nH]n1N)C(C#N)c1ccccc1)c1ccccc1 (stereo not drawn)	> 100 µM

— PubChem BioAssay (NCI)
